We go through 17 compounds from US20070104648A1, “Compositions, methods of preparing amino acids, and nuclear magnetic resonance spectroscopy” (Glyconix Corporation, priority 2005, published 2007).

Data set [1] can be described thus: Binding constants (pK) of L-p-BPA carbohydrate/polyol complexes by 1H-NMR integration of aromatic protons. As to conditions: 1H-NMR in D2O buffered to physiological pH (7.4); free L-p-BPA vs complex aromatic protons; three concentrations. Type of data set: physicochemical. The source says:
For fructose and sorbose, or when a large excess of another carbohydrate or polyol is used, the p-BPA remains in solution at a pH of 7.4, and approximately 90% of the p-BPA is present as its sodium carboxylate, with the remainder as its free acid. A large excess of carbohydrate or polyol is preferred when pK is small; however, for complexes with a pK>about 3 a large excess in not need. The ratio of free p-BPA to p-BPA:carbohydrate complex can be determined by integration of the aromatic protons resonances (p-BPA, 7.73 and 7.33 ppm; p-BPA-carbohydrate complex, 7.5 and 7.2 ppm) in the 1H-NMR spectrum using D2O buffered to physiological pH as the solvent. For example, L-p-boronophenylalanine fructose complex has a pK of 3.2 while the meso-erythitol complex has a pK of 1.0, the threitol complex has a pK of 1.3, the adonitol complex has a pK of 1.7, the arabitol complex has a pK of 2.3, the rhamnitol complex has a pK of 2.3, the xylitol complex has a pK of 2.5, the talitol complex has pK of 2.4, the dulcitol complex has a pK of 2.7, the mannitol complex has a pK of 2.7, the 1-aminodulcitol complex has a pK of 2.9, the sorbitol complex has a pK of 3.2, the 1-aminosorbitol complex has a pK of 3.4, the isomaltitol complex has a pK of 3.4, the cellobiitol complex has a pK of 3.5, the lactitol complex has a pK of 3.7, the maltitol complex has a pK of 3.9, the volemitol complex has a pK of 2.9, the perseitol complex has a pK of 3.1, the glucoheptitol complex has a pK of 3.9, and the alpha,alpha-glucooctitol complex has a pK of 4.1.
L-p-Boronophenylalanine-polyol or -aminopolyol complexes are prepared by combining 0.5 mM of alpha-deuterated or alpha-hydrogenated L-p-BPA with between 1.00 and 1.05 equivalents of complexing agent (with the exception of poorly complexing polyols and carbohydrates, in which up to 4.3 equivalents of polyol or carbohydrates are used) in 2 mL of water. One equivalent of NaOH (1 mL of 0.5 M) is then added and the slurry gently warmed if needed in order to dissolve all solids. The pH is then monitored and reduced to between 7.5 and 7.3 by the addition of Dowex50WX4-50 ion exchange resin. The clear solution is then passed through a 0.2 μm syringe filter and then freeze-dried to constant weight. ^1H and ^13C NMR spectra are recorded on a GE 300 MHz FT-NMR spectrometer with D2O buffered at 7.4 [Bates, R G, Bower, V E. 1956. Alkaline solutions for pH control. Anal. Chem. 28:1322-1324] as the solvent. The binding constants are calculated at three different concentrations by integration of the free L-p-BPA aromatic protons (7.73 and 7.33 ppm) compared with those of the L-p-BPA complexes (7.5 and 7.2 ppm). Spectra of the 1:1 complexes are reported.

For data set [2] the following is noted: physiological pH; cited from earlier work.

For the compound “L-p-boronophenylalanine fructose complex [reference compound]”, the “pK of the p-BPA:carbohydrate/polyol complex (binding constant)” value in data set [1] came out at 3.2.

Take `N[C@@H](Cc1ccc(B(O)O)cc1)C(=O)O` [BPA, para-boronophenylalanine]: the water solubility result in data set [2] was “poor water solubility”.

With “L-p-boronophenylalanine-mannitol complex”, the “pK of the p-BPA:carbohydrate/polyol complex (binding constant)” value in data set [1] is 2.7.

Regarding “L-p-boronophenylalanine-rhamnitol complex”, the “pK of the p-BPA:carbohydrate/polyol complex (binding constant)” value in data set [1] was determined as 2.3.

As for “L-p-boronophenylalanine-maltitol complex”, in data set [1], the “pK of the p-BPA:carbohydrate/polyol complex (binding constant)” value is on record as 3.9.

As for “L-p-boronophenylalanine-persietol complex [perseitol complex]”, in data set [1], the “pK of the p-BPA:carbohydrate/polyol complex (binding constant)” value came to 3.1.

On to “L-p-boronophenylalanine-isomaltitol complex”, for which the “pK of the p-BPA:carbohydrate/polyol complex (binding constant)” value in data set [1] turned out to be 3.4.

For the compound “L-p-boronophenylalanine-cellobiitol complex”, the “pK of the p-BPA:carbohydrate/polyol complex (binding constant)” value in data set [1] worked out at 3.5.

In the case of “L-p-boronophenylalanine-dulcitol complex”, the “pK of the p-BPA:carbohydrate/polyol complex (binding constant)” value in data set [1] is recorded as 2.7.

Regarding “L-p-boronophenylalanine-aminosorbitol complex [1-aminosorbitol complex]”, the “pK of the p-BPA:carbohydrate/polyol complex (binding constant)” value in data set [1] was 3.4.

In the case of “L-p-boronophenylalanine-volemitol complex”, the “pK of the p-BPA:carbohydrate/polyol complex (binding constant)” value in data set [1] was 2.9.

With “L-p-boronophenylalanine-α,α-glucooctitol complex [alpha,alpha-glucooctitol complex]”, the “pK of the p-BPA:carbohydrate/polyol complex (binding constant)” value in data set [1] was 4.1.

“L-p-boronophenylalanine-aminodulcitol complex [1-aminodulcitol complex]”: the “pK of the p-BPA:carbohydrate/polyol complex (binding constant)” value in data set [1] is 2.9.

As for L-p-boronophenylalanine-xylitol complex, in data set [1], the “pK of the p-BPA:carbohydrate/polyol complex (binding constant)” value was found to be 2.5.

Consider “L-p-boronophenylalanine-α-glucoheptitol complex”, for which, in data set [1], the “pK of the p-BPA:carbohydrate/polyol complex (binding constant)” value was 3.9.

For the compound “L-p-boronophenylalanine-lactitol complex”, the “pK of the p-BPA:carbohydrate/polyol complex (binding constant)” value in data set [1] came out at 3.7.

As for “L-p-boronophenylalanine-sorbitol complex”, the “pK of the p-BPA:carbohydrate/polyol complex (binding constant)” value in data set [1] amounted to 3.2.
